This passage reports MIC results from ChEMBL document CHEMBL1153535, “Nitazoxanide kills replicating and nonreplicating Mycobacterium tuberculosis and evades resistance” (J Med Chem, 2009).

In brackets after ≈: the same amount, converted by molar mass.

Experiment [1] concerns Mycobacterium tuberculosis. Nature of the experiment: Antimycobacterial activity against Mycobacterium bovis var. bovis BCG in 7H9 liquid medium after 7 days. Format: functional. Particulars: variant bovis BCG, 168 h.
Experiment [2] concerns Mycobacterium tuberculosis. Nature of the experiment: Antimycobacterial activity against Mycobacterium bovis var. bovis BCG in 7H11 solid medium after 7 days. Type of experiment: functional. The conditions noted are these: variant bovis BCG, 168 h.

For orientation: MIC means the lowest concentration found to suppress growth. A lower MIC goes with a more susceptible organism. For the molecule `CC(=O)Oc1ccccc1C(=O)Nc1ncc([N+](=O)[O-])s1` [NITAZOXANIDE], the MIC in experiment [1] and in experiment [2] was 16 µg/mL (≈ 52.1 µM) each time.
